Consider 9 compounds from ChEMBL document CHEMBL5291721, “A preclinical secondary pharmacology resource illuminates target-adverse drug reaction associations of marketed drugs” (Nat Commun, 2023).

The structures appear in SMILES notation.

The target of experiment [1] is T1, Adenosine receptor A3 (Homo sapiens, UniProt P0DMS8).
T1 sequence (P0DMS8 whole entry): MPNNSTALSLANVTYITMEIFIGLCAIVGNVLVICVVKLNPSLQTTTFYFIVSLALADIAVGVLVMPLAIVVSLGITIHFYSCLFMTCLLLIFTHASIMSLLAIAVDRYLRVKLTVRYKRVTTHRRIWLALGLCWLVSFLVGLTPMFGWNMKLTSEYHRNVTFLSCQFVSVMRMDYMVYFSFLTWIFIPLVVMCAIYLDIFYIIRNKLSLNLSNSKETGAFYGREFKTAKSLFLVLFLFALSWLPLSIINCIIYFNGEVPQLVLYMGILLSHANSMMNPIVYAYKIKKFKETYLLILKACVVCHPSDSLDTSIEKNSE

Experiment [2] concerns the target T2, Alpha-1A adrenergic receptor (Homo sapiens, UniProt P35348).
T2 sequence (P35348 whole entry): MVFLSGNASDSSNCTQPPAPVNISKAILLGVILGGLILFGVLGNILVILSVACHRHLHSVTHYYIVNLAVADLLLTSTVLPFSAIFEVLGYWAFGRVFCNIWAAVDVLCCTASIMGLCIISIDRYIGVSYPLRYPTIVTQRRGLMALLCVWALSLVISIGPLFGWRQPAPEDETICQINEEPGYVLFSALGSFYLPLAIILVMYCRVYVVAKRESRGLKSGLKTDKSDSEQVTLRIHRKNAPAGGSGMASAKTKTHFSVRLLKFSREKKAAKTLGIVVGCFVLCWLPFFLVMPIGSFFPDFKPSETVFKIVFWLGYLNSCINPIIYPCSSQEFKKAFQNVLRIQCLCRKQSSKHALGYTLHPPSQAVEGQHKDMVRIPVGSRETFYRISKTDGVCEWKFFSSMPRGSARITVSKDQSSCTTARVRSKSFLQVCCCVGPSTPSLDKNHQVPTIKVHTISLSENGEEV
It is filed as functional, cell-based.

Experiment [3] has as its target Beta-1 adrenergic receptor (Homo sapiens, UniProt P08588). It is filed as functional.
For experiment [4], the target named is T3, Beta-2 adrenergic receptor (Homo sapiens, UniProt P07550). It is filed as functional, cell-based.
For experiment [5], the target named is T4, Type-1 angiotensin II receptor (Homo sapiens, UniProt P30556).
T4 sequence (P30556 whole entry): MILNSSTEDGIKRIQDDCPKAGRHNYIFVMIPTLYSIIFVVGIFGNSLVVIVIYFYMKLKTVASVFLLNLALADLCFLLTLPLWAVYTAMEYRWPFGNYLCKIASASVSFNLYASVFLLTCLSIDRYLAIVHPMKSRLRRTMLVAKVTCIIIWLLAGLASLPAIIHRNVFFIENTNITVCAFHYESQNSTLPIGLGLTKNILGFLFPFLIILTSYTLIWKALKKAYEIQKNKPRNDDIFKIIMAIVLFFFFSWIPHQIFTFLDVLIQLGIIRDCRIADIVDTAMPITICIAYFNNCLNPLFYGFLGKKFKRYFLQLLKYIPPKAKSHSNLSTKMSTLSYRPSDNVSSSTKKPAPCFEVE

Experiment [6] has as its target Vasopressin V2 receptor (Homo sapiens, UniProt P30518).
In experiment [7] the target is T5, Muscarinic acetylcholine receptor M2 (Homo sapiens, UniProt P08172).
T5 sequence (P08172 whole entry): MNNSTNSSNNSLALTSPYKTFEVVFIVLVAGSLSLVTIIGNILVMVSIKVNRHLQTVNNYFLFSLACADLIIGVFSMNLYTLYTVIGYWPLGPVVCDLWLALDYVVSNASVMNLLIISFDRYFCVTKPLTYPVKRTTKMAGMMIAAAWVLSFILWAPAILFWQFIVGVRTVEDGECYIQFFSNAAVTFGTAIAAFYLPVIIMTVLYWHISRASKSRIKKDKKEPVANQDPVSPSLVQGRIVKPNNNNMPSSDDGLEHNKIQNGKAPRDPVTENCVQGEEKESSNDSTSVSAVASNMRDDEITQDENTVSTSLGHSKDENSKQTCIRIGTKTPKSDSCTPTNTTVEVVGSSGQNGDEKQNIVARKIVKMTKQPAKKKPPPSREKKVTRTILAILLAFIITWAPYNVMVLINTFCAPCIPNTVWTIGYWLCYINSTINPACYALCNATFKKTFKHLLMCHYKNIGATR
It is filed as functional, cell-based.

Experiment [8] has as its target Histamine H1 receptor (Homo sapiens, UniProt P35367).
In experiment [9] the target is Histamine H2 receptor (Homo sapiens, UniProt P25021). It is filed as functional, cell-based.
Experiment [10] has as its target T6, 5-hydroxytryptamine receptor 2B (Homo sapiens, UniProt P41595). It is filed as functional, cell-based.
The target of experiment [11] is T6, 5-hydroxytryptamine receptor 2B. It is filed as functional, cell-based. This is another data set of the same source.
Experiment [12] deals with Melanocortin receptor 3 (Homo sapiens, UniProt P41968).
Experiment [13] addresses Delta-type opioid receptor (Homo sapiens, UniProt P41143).
Experiment [14] addresses 3',5'-cyclic-AMP phosphodiesterase 4D (Homo sapiens, UniProt Q08499). It is filed as functional.
In experiment [15] the target is Sodium-dependent noradrenaline transporter (Homo sapiens, UniProt P23975).
Experiment [16] has as its target T2, Alpha-1A adrenergic receptor. It is filed as functional, cell-based. The source holds these as a separate data set.
The target in experiment [17] is Histamine H3 receptor (Homo sapiens, UniProt Q9Y5N1).
Experiment [18] addresses T3, Beta-2 adrenergic receptor.
In experiment [19] the target is Voltage-dependent L-type calcium channel subunit alpha-1C (Rattus norvegicus, UniProt P22002). It is filed as functional.
Experiment [20] deals with T7, Thromboxane A2 receptor (Homo sapiens, UniProt P21731).
T7 sequence (P21731 whole entry): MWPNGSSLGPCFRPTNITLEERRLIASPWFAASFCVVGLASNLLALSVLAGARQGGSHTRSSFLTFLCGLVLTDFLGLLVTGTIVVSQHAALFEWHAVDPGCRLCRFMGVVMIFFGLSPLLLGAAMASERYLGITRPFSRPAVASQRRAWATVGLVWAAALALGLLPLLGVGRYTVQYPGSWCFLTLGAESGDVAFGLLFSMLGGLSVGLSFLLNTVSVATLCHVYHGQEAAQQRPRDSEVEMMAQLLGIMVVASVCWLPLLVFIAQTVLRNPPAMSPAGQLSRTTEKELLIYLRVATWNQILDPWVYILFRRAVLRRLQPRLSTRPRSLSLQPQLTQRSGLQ
Note: assay procedure not described here.

Delta-type opioid receptor, sequence (P41143 whole entry): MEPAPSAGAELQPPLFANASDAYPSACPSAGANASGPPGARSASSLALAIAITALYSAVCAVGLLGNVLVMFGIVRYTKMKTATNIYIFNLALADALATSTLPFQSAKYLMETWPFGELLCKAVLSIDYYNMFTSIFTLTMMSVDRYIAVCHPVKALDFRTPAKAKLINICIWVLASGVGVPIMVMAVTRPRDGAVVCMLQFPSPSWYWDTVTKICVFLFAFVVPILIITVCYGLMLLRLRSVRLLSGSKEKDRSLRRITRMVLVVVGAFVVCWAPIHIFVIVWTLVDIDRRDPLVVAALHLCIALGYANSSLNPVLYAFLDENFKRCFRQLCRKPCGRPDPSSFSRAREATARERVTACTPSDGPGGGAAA
Histamine H3 receptor, sequence (Q9Y5N1 whole entry): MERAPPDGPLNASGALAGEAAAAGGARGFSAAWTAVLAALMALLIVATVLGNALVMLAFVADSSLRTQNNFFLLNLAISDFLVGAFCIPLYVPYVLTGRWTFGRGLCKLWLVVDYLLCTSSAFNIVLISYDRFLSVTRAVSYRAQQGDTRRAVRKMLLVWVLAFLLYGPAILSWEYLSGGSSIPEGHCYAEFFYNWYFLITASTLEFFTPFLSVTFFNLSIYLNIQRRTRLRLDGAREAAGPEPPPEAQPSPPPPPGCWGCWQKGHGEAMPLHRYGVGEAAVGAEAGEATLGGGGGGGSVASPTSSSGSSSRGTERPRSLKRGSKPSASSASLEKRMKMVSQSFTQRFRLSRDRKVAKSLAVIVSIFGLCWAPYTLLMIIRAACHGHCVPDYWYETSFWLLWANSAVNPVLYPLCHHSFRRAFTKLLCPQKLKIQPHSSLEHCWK
T3 sequence (P07550 whole entry): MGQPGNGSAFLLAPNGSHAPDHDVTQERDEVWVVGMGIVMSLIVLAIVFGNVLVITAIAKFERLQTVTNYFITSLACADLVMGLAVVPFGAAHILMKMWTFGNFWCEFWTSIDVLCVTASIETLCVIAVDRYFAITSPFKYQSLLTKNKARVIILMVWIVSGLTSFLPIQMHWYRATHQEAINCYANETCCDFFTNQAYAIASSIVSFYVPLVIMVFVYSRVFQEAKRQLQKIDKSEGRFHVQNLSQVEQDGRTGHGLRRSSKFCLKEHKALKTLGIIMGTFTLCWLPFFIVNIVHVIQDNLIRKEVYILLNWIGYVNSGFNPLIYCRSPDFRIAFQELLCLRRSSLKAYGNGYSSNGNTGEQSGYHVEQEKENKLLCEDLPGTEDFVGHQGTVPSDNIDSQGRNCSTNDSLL
T6 sequence (P41595 whole entry): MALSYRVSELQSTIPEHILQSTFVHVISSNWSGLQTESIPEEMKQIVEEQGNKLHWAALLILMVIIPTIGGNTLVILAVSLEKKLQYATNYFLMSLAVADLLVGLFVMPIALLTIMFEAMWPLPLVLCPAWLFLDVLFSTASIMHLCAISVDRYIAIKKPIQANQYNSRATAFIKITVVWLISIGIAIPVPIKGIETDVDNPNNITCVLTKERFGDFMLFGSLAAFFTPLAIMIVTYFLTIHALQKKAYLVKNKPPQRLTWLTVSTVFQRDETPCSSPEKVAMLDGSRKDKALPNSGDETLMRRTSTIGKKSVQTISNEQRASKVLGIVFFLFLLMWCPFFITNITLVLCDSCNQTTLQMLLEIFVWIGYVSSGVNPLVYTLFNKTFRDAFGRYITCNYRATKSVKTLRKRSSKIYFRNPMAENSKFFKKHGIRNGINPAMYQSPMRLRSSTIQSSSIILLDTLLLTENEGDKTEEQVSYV
Sodium-dependent noradrenaline transporter, sequence (P23975 whole entry): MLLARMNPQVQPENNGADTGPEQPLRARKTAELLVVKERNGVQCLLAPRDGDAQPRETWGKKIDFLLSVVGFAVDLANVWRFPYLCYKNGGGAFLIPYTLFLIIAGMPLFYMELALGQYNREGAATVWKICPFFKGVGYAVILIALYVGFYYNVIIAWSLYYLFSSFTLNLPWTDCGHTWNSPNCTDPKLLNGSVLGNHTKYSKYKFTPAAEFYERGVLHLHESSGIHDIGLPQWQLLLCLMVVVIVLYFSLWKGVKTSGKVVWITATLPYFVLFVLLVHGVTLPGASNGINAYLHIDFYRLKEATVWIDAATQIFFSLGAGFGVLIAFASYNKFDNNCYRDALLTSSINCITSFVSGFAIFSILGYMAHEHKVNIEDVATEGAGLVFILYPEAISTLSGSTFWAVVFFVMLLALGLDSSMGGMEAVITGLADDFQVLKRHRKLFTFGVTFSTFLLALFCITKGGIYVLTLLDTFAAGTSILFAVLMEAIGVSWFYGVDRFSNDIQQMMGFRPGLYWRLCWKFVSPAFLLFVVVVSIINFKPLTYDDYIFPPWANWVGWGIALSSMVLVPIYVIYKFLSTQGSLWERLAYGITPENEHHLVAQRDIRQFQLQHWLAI
Melanocortin receptor 3, sequence (P41968 whole entry): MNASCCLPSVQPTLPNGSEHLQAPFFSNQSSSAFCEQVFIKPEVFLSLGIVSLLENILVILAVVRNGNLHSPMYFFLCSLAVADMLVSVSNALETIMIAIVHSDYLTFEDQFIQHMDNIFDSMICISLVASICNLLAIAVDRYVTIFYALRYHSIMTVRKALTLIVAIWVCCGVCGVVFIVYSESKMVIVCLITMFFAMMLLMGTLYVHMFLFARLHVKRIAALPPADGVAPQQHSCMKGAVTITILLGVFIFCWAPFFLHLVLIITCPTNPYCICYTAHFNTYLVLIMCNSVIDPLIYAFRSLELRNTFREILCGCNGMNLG
Vasopressin V2 receptor, sequence (P30518 whole entry): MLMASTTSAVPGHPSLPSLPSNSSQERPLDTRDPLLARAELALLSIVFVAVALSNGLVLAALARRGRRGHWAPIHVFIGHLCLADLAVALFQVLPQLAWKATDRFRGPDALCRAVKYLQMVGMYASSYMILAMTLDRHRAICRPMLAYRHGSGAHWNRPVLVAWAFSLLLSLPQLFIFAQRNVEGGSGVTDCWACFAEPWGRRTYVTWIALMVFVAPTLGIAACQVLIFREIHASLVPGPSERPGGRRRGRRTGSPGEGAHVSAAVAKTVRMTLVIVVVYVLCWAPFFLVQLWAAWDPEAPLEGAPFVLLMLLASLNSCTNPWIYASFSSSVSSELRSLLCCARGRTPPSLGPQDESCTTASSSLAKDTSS
Beta-1 adrenergic receptor, sequence (P08588 whole entry): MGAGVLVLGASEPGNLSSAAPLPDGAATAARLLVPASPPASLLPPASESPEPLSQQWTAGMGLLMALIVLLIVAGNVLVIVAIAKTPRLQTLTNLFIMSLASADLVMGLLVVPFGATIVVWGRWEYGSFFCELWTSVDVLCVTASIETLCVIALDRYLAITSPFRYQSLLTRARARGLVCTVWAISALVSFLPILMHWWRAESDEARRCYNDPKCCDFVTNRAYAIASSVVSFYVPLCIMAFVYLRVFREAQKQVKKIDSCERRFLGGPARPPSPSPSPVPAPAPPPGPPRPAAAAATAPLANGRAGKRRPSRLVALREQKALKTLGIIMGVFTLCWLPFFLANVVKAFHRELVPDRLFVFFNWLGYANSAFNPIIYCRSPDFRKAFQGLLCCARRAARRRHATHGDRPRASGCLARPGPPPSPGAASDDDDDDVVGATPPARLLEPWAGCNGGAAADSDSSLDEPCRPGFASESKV
Histamine H2 receptor, sequence (P25021 whole entry): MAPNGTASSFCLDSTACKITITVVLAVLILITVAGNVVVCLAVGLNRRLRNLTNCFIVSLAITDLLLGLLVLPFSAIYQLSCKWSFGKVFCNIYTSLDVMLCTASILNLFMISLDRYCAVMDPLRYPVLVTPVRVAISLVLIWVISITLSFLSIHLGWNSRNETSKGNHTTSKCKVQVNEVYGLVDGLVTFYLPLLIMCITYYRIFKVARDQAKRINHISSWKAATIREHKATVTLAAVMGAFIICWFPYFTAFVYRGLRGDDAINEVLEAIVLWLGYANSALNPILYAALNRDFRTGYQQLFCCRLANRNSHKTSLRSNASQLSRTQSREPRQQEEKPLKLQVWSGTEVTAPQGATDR
Histamine H1 receptor, sequence (P35367 whole entry): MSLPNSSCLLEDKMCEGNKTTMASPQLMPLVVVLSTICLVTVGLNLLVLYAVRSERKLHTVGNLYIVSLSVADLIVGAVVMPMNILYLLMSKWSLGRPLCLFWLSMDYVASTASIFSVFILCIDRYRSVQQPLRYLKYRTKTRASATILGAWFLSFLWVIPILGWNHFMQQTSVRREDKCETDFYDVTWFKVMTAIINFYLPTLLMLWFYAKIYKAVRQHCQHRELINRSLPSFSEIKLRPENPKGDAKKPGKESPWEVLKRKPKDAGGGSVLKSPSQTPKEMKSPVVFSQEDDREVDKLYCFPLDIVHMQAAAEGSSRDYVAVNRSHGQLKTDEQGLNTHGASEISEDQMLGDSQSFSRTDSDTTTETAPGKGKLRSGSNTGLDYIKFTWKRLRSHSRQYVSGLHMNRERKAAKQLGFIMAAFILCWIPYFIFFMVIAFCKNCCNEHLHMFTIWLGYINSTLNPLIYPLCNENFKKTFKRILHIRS

One may read the AC50 as the concentration at which the activity in the assay is half-maximal. In the case of `CC[C@@H](C(N)=O)N1CCCC1=O`, the AC50 in [1], in [2], in experiment [3], in experiment [4], in experiment [5] and in experiment [6] was > 30 µM each time. The AC50 is > 30 µM in experiment [7]; > 10 µM in experiment [8]; > 30 µM in [9]; > 30 µM in [10]; > 30 µM in experiment [11]; > 30 µM in [12]. Also, the AC50 in [13], in experiment [14], in [15], in experiment [16] and in experiment [17] was > 30 µM each time.
`CN1CCN(C2=Nc3ccccc3Sc3ccc(Cl)cc32)CC1` [CLOTHIAPINE]: the AC50 in experiment [2] was > 30 µM; in [4] it was > 30 µM; in [7], 6.7 µM; in experiment [8], 0.02 µM; in [9], > 30 µM; in experiment [10], > 30 µM. In addition, the AC50 is 1.3 µM in experiment [11], 22 µM in experiment [13], > 30 µM in experiment [14] and 1.2 µM in experiment [16].
On to `CN(C)CCC=C1c2ccccc2C=Cc2ccccc21` [CYCLOBENZAPRINE], for which the AC50 was > 30 µM in experiment [1]; > 30 µM in experiment [2]; > 10 µM in [3]; > 30 µM in [4]; > 10 µM in experiment [18]; > 30 µM in [5]. Further, the AC50 in [6] was > 30 µM; in experiment [19], > 10 µM; in [8] it was 0.021 µM; in experiment [9] it was > 10 µM; in [10], > 10 µM; in experiment [11], 1.25 µM. Further, the AC50 is > 30 µM in [12]; > 30 µM in experiment [13]; > 30 µM in [14]; > 30 µM in [20]; 0.378 µM in [15]; 0.47 µM in experiment [16]. For the same compound, the AC50 in experiment [17] was > 10 µM.
As for `CC[C@H]1CN2CCc3cc(OC)c(OC)cc3[C@@H]2C[C@@H]1C[C@H]1NCCc2cc(OC)c(OC)cc21` [EMETINE], the concentration at half-maximal activity (AC50) in experiment [1], in experiment [2], in experiment [3], in experiment [4], in experiment [18] and in experiment [5] was > 30 µM in each case. Besides, the AC50 in [6], in experiment [7], in experiment [9], in [10], in [11] and in [12] was > 30 µM in each case. Besides, the AC50 in [13], in experiment [14], in experiment [20], in experiment [15], in experiment [16] and in [17] was > 30 µM each time.
For `Cc1cc(C)c(NC(=O)CN(CC(=O)O)CC(=O)O)c(C)c1Br` [MEBROFENIN], the AC50 in experiment [2], in experiment [4], in [7], in experiment [8], in [9] and in experiment [10] was > 30 µM in each case. Moreover, the half-maximal activity concentration (AC50) in experiment [11], in [13], in [14] and in [16] was > 30 µM each time.
Consider `COc1ccccc1N1CCN(CC(O)COc2cccc3ccccc23)CC1` (stereo unspecified) [NAFTOPIDIL], for which the AC50 in experiment [1] was > 30 µM; in experiment [2], > 30 µM; in [3], 1.1 µM; in [4], > 30 µM; in experiment [19], 6.3 µM; in experiment [7] it was > 30 µM. Further, the AC50 is 0.75 µM in [8]; 1.3 µM in [9]; > 30 µM in experiment [10]; 0.84 µM in experiment [11]; > 30 µM in experiment [12]; 12 µM in experiment [13]. Moreover, the AC50 in [14] was > 30 µM; in [20] it was > 30 µM; in experiment [15] it was 9.6 µM; in [16], 0.46 µM.
As to `Cc1oc(=O)oc1CN1CCN(c2cc3c(cc2F)c(=O)c(C(=O)O)c2n3C(C)S2)CC1` (stereo unspecified) [PRULIFLOXACIN], the AC50 in [2], in experiment [4], in experiment [7], in experiment [8], in experiment [9] and in [10] was > 30 µM in each case. Moreover, the half-maximal activity concentration (AC50) in [11], in experiment [13], in experiment [14] and in [16] was > 30 µM each time.
`COC1=C(OC)C(=O)C(C/C=C(\C)CC/C=C(\C)CC/C=C(\C)CC/C=C(\C)CC/C=C(\C)CC/C=C(\C)CC/C=C(\C)CC/C=C(\C)CC/C=C(\C)CCC=C(C)C)=C(C)C1=O` [UBIDECARENONE]: the AC50 in experiment [2], in [4], in [7], in [8], in experiment [9] and in experiment [10] was > 30 µM in each case. The AC50 in experiment [11], in experiment [13], in [14] and in experiment [16] was > 30 µM each time.
As for `CN(C)CCc1c[nH]c2ccc(C[C@H]3COC(=O)N3)cc12` [ZOLMITRIPTAN], the AC50 in experiment [1] is > 30 µM; in [2] it was 14 µM; in experiment [3], > 30 µM; in [4] it was > 30 µM; in experiment [5], > 30 µM; in experiment [6] it was > 30 µM. Moreover, the concentration at half-maximal activity (AC50) in [7], in experiment [8], in experiment [9], in [10], in experiment [11] and in experiment [12] was > 30 µM throughout. The AC50 was > 10 µM in [13], > 30 µM in [14], > 30 µM in experiment [15] and > 30 µM in [17].
